In PubChem BioAssay (NCI):
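At the GI50, growth is halved. TGI: total growth inhibition.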

Columns and labels:
Experiment in all cases: growth of human tumour cells (NCI), 384-well format
786-0 renal = test system: 786-0 renal
A498 renal = test system: A498 renal
A549 NSCLC = test system: A549 NSCLC
BT-549 breast = test system: BT-549 breast
CAKI-1 renal = test system: CAKI-1 renal
CCRF-CEM leukemia = test system: CCRF-CEM leukemia
COLO 205 colon = test system: COLO 205 colon
DU-145 prostate = test system: DU-145 prostate
EKVX NSCLC = test system: EKVX NSCLC
HCC-2998 colon = test system: HCC-2998 colon
HCT-116 colon = test system: HCT-116 colon
HCT-15 colon = test system: HCT-15 colon
HL-60(TB) leukemia = test system: HL-60(TB) leukemia
HOP-62 NSCLC = test system: HOP-62 NSCLC
HOP-92 NSCLC = test system: HOP-92 NSCLC
HS 578T breast = test system: HS 578T breast
HT29 colon = test system: HT29 colon
IGROV1 ovarian = test system: IGROV1 ovarian
K-562 leukemia = test system: K-562 leukemia
KM12 colon = test system: KM12 colon
LOX IMVI melanoma = test system: LOX IMVI melanoma
M14 melanoma = test system: M14 melanoma
MALME-3M melanoma = test system: MALME-3M melanoma
MCF7 breast = test system: MCF7 breast
MDA-MB-231 breast = test system: MDA-MB-231 breast
MDA-MB-435 melanoma = test system: MDA-MB-435 melanoma
MDA-MB-468 breast = test system: MDA-MB-468 breast
MOLT-4 leukemia = test system: MOLT-4 leukemia
NCI-H226 lung = test system: NCI-H226 lung
NCI-H23 lung = test system: NCI-H23 lung
NCI-H322M lung = test system: NCI-H322M lung
NCI-H460 NSCLC = test system: NCI-H460 NSCLC
NCI-H522 lung = test system: NCI-H522 lung
NCI/ADR-RES ovarian = test system: NCI/ADR-RES ovarian
OVCAR-3 ovarian = test system: OVCAR-3 ovarian
OVCAR-4 ovarian = test system: OVCAR-4 ovarian
OVCAR-5 ovarian = test system: OVCAR-5 ovarian
PC-3 prostate = test system: PC-3 prostate
RPMI-8226 leukemia = test system: RPMI-8226 leukemia
RXF 393 renal = test system: RXF 393 renal
SF-268 CNS = test system: SF-268 CNS
SF-295 CNS = test system: SF-295 CNS
SF-539 CNS = test system: SF-539 CNS
SK-MEL-2 melanoma = test system: SK-MEL-2 melanoma
SK-MEL-28 melanoma = test system: SK-MEL-28 melanoma
SK-MEL-5 melanoma = test system: SK-MEL-5 melanoma
SK-OV-3 ovarian = test system: SK-OV-3 ovarian
SNB-19 CNS = test system: SNB-19 CNS
SNB-75 CNS = test system: SNB-75 CNS
SR leukemia = test system: SR leukemia
SW-620 colon = test system: SW-620 colon
T-47D breast = test system: T-47D breast
TK-10 renal = test system: TK-10 renal
U251 glioblastoma = test system: U251 glioblastoma
UACC-257 melanoma = test system: UACC-257 melanoma
UACC-62 melanoma = test system: UACC-62 melanoma
UO-31 renal = test system: UO-31 renal

Cc1nc(N)sc1-c1ccnc(Nc2ccc(N3CCOCC3)cc2)n1
GI50 ([…]-0 renal): 1.42 µM
TGI (786-0 renal): 6.74 µM
GI50 (A498 renal): 0.433 µM
TGI (A498 renal): 3.72 µM
GI50 (A549 NSCLC): 0.44 µM
TGI (A549 NSCLC): 7.61 µM
GI50 (BT-549 breast): 0.19 µM
TGI (BT-549 breast): 0.676 µM
GI50 (CAKI-1 renal): 0.381 µM
TGI (CAKI-1 renal): 2.05 µM
GI50 (CCRF-CEM leukemia): 0.127 µM
TGI (CCRF-CEM leukemia): 1.06 µM
GI50 (COLO 205 colon): 0.756 µM
TGI (COLO 205 colon): 16.2 µM
GI50 (DU-145 prostate): 0.709 µM
TGI (DU-145 prostate): 75.5 µM
GI50 (EKVX NSCLC): 1.35 µM
TGI (EKVX NSCLC): 5.83 µM
GI50 (HCC-2998 colon): 3.88 µM
TGI (HCC-2998 colon): 42 µM
GI50 (HCT-116 colon): 0.557 µM
TGI (HCT-116 colon): 4.16 µM
GI50 (HCT-15 colon): 0.328 µM
TGI (HCT-15 colon): 15.3 µM
GI50 (HL-60(TB) leukemia): 0.642 µM
TGI (HL-60(TB) leukemia): 2.4 µM
GI50 (HOP-62 NSCLC): 0.504 µM
TGI (HOP-62 NSCLC): 4.58 µM
GI50 (HOP-92 NSCLC): 0.433 µM
TGI (HOP-92 NSCLC): 4.49 µM
GI50 (HS 578T breast): 0.302 µM
TGI (HS 578T breast): 1.56 µM
GI50 (HT29 colon): 0.596 µM
TGI (HT29 colon): 2.14 µM
GI50 (IGROV1 ovarian): 0.305 µM
TGI (IGROV1 ovarian): 2.09 µM
GI50 (K-562 leukemia): 1.15 µM
TGI (K-562 leukemia): > 100 µM
GI50 (KM12 colon): 0.378 µM
TGI (KM12 colon): 15.3 µM
GI50 (LOX IMVI melanoma): 0.767 µM
TGI (LOX IMVI melanoma): 2.53 µM
GI50 (M14 melanoma): 2.41 µM
TGI (M14 melanoma): 28 µM
GI50 (MALME-3M melanoma): 2.7 µM
TGI (MALME-3M melanoma): > 100 µM
GI50 (MCF7 breast): 1.62 µM
TGI (MCF7 breast): 23.2 µM
GI50 (MDA-MB-231 breast): 0.371 µM
TGI (MDA-MB-231 breast): 4.95 µM
GI50 (MDA-MB-435 melanoma): 1.74 µM
TGI (MDA-MB-435 melanoma): 18.7 µM
GI50 (MDA-MB-468 breast): 0.132 µM
TGI (MDA-MB-468 breast): 0.33 µM
GI50 (MOLT-4 leukemia): 0.0224 µM
TGI (MOLT-4 leukemia): 0.115 µM
GI50 (NCI-H226 lung): 0.416 µM
TGI (NCI-H226 lung): 2.53 µM
GI50 (NCI-H23 lung): 1.38 µM
TGI (NCI-H23 lung): 7.56 µM
GI50 (NCI-H322M lung): 1.65 µM
TGI (NCI-H322M lung): 26.9 µM
GI50 (NCI-H460 NSCLC): 0.224 µM
TGI (NCI-H460 NSCLC): 3.13 µM
GI50 (NCI-H522 lung): 0.142 µM
TGI (NCI-H522 lung): 3.02 µM
GI50 (NCI/ADR-RES ovarian): 2.65 µM
TGI (NCI/ADR-RES ovarian): > 100 µM
GI50 (OVCAR-3 ovarian): 1.07 µM
TGI (OVCAR-3 ovarian): 23.1 µM
GI50 (OVCAR-4 ovarian): 46 µM
TGI (OVCAR-4 ovarian): > 100 µM
GI50 (OVCAR-5 ovarian): 0.854 µM
TGI (OVCAR-5 ovarian): 9.33 µM
GI50 (PC-3 prostate): 0.463 µM
TGI (PC-3 prostate): 8.53 µM
GI50 (RPMI-8226 leukemia): 0.375 µM
TGI (RPMI-8226 leukemia): 2.12 µM
GI50 (RXF 393 renal): 0.922 µM
TGI (RXF 393 renal): 2.57 µM
GI50 (SF-268 CNS): 0.663 µM
TGI (SF-268 CNS): 5.73 µM
GI50 (SF-295 CNS): 0.627 µM
TGI (SF-295 CNS): 5.7 µM
GI50 (SF-539 CNS): 0.499 µM
TGI (SF-539 CNS): 1.9 µM
GI50 (SK-MEL-2 melanoma): 2.19 µM
TGI (SK-MEL-2 melanoma): 5.56 µM
GI50 (SK-MEL-28 melanoma): 1.38 µM
TGI (SK-MEL-28 melanoma): 7.04 µM
GI50 (SK-MEL-5 melanoma): 1.6 µM
TGI (SK-MEL-5 melanoma): 8.43 µM
GI50 (SK-OV-3 ovarian): 0.411 µM
TGI (SK-OV-3 ovarian): 4.87 µM
GI50 (SNB-19 CNS): 4.42 µM
TGI (SNB-19 CNS): > 100 µM
GI50 (SNB-75 CNS): 0.653 µM
TGI (SNB-75 CNS): 2.41 µM
GI50 (SR leukemia): 0.0329 µM
TGI (SR leukemia): 0.121 µM
GI50 (SW-620 colon): 0.397 µM
TGI (SW-620 colon): 2.39 µM
GI50 (T-47D breast): 5.42 µM
TGI (T-47D breast): 68.6 µM
GI50 (TK-10 renal): 0.376 µM
TGI (TK-10 renal): 7.48 µM
GI50 (U251 glioblastoma): 1.54 µM
TGI (U251 glioblastoma): 17.9 µM
GI50 (UACC-257 melanoma): 3.68 µM
TGI (UACC-257 melanoma): 9.9 µM
GI50 (UACC-62 melanoma): 0.482 µM
TGI (UACC-62 melanoma): 3.37 µM
GI50 (UO-31 renal): 0.619 µM
TGI (UO-31 renal): 3.09 µM
